We go through two compounds from patent US8927717B1, “Thiochromeno[2,3-c]quinolin-12-one derivatives, preparation method and application thereof” (National Defense Medical Center, priority 2014, dated 2015).

SMILES strings stand for the structures. Where two headings read alike, the source gives them in different places.

The subject of assay [1] is DU-145 cell line. Briefly: MTT assay for cell cytotoxicity. The settings on record: read-out: MTT assay (IC50 ± SD) DU-145. Type of assay: cell-based, human. As for the experimental part:
(§1) All of synthesis compounds were evaluated cell cytotoxicity by using MTT colorimetric assay on PC-3 and DU-145 cell lines. DU-145 and PC-3 are human hormone-refractory (androgen-independent) prostatic cancer cell lines from American Type Culture Collection (HTB-81™, ATCC, Rockville, Md.)^125 and Bioresource Collection and Research Center (60122, BCRC, Taiwan)^126, respectively. Two of the “classical” cell lines were cultivated in RPMI-1640 medium supplemented with 5% fetal bovine serum (v/v), 100 U/mL penicillin, and […] streptomycin. Approximately 2×10^3 cells were seeded into each well of a 96-well plate and incubated in 5% CO2 at 37° C. for 24 h. To evaluate the in vitro cytotoxicity, all the synthetic compounds were dissolved in DMSO, prepared immediately before the experiments and diluted into the complete medium before being added to each well of a 96-well plate. Each compound was then added to the culture medium for designated various concentrations (0.15, 0.5, 1.5, 5, 15 μM). After 72 h, an amount of 100 μL of MTT (1 mg/mL) was added to each well, and the samples were incubated at 37° C. for 4 h. After removing the MTT solution, 100 μL of DMSO was added to each well and incubated at 37° C. for another 20 mins. The absorbency at 560 nm was measured by using an ELISA reader.
(§2) Results are expressed as mean values of at least three independent experiments. The IC50 values of testing compounds were described in Table 1.

Assay [2] concerns PC-3 cell line. Briefly: MTT assay for cell cytotoxicity. The settings on record: read-out: MTT assay (IC50 ± SD) PC-3. The assay is classed as cell-based, human. As for the experimental part: as §1, §2

As for `O=c1c2cc(Cl)ccc2sc2c(NCCO)nc3ccccc3c12` [Compound N9, 10-Chloro-6-(2-ethanolamino)-12H-thiochromeno[2,3-c]quinolin-12-one], the IC50 in assay [1] (DU-145 cells, 72 h, at least three independent experiments) worked out at 11.6 ± 7.23 µM; in assay [2] (PC-3 cells, 72 h, at least three independent experiments), 7.48 ± 3.35 µM.
`CC(C)CC(C)Nc1nc2ccccc2c2c(=O)c3cc(Cl)ccc3sc12` (stereo not shown) [Compound N13, 10-Chloro-6-((4-methylpentan-2-yl)amino)-12H-thiochromeno[2,3-c]quinolin-12-one]: the IC50 in assay [1] (Homo sapiens, DU-145, 72 h) is 14.2 ± 1.18 µM; in assay [2] (Homo sapiens, PC-3, 72 h), 10.4 ± 2.3 µM.
